Laboratory results published in patent publication US7062219B2, “Protein fragment complementation assays for high-throughput and high-content screening” (Odyssey Thera Inc., priority 1997, dated 2006).
“Also recorded” adds a separate entry of the source. Non-standard residues stand in square brackets, D forms with d. Residues, ends and D or L forms follow the SMILES beside them. Nle = CCCC[C@H](N)C(=O)O

Experiments:
[1] = tested on: NFkB (p65/p50) complex; test: transient high-content YFP PCA for NFkB (p65/p50) nuclear translocation in CHO cells; type: cell-based; details: 40 micrograms/ml ALLN 1 hour prior to and during TNF
Procedure: Fusion genes were subcloned into pCDNA3.1 expression vectors (Invitrogen) with a Zeocin selectable marker for YFP[1]-p50, and a hygromycin marker for YFP[2]-p65. A linker consisting of (GGGGS)2 (SEQ ID No.1) separated the genes of interest and the YFP fragments. CHO DUKXB11 cells were seeded into 96 well plates at a density of 8×10e3 cells/well and transfected 24 hours later with YFP[1] and YFP[2] fusion genes at a 1:1 molar ratio using Fugene (Boehringer Mannheim) according to manufacturer's directions. A total of 20 ng DNA per well was used for each sample. Thirty-six hours post-transfection, cells were serum starved by incubation in 0.25% FBS-supplemented aMEM for an additional 16–18 hours. For cytokine induction, certain cells were treated with 25 ng/ml mTNF (Boehringer Mannheim) for 30 min. To examine the effect of proteasome inhibition on NFkB nuclear translocation, the serum-starved cells were treated with 40 micrograms/ml ALLN (Calbiochem) for 1 hour prior to and during the mTNF alpha induction period. The cells were rinsed with PBS and the subcellular location of NFkB complexes was visualized and images acquired using a Nikon Eclipse TE2000 fluorescence microscope at excitation and emission wavelengths of 485 nm and 527 nm, respectively. Quantitative analysis of fluorescence intensities was performed using Metamorph software (Universal Imaging, Molecular Devices, Inc.)

[2] = tested on: p65/p50 complex; test: DHFR PCA for NFkB (p65/p50) translocation in CHO DUKXB11 cells; type: cell-based, mouse and human; details: 40 micrograms/ml ALLN
Procedure: Coding regions of NFkB subunits p65 and p50 (corresponding to N-terminal 436 amino acids) were PCR amplified from mouse and human cDNAs, respectively, and ligated in-frame downstream of a 15 amino acid flexible linker (GGGGS)3 (SEQ ID No.30) followed by DHFR fragment F[1,2] or F[3] in pCDNA3.1zeo (Invitrogen). IkBa was subcloned separately into pCDNA3.1. For transient expression of these genes, 8×10e4 DHFR-deficient CHO DXB11 cells were seeded into 12 well plates and transfected 24 hours later with [F1,2]-p65, [F3]-p50, and IkBa at the molar ratio of 1:1:1 for each fusion construct using Fugene (Boehringer Mannheim) according to manufacturer's instructions. For controls, where indicated, empty pCDNA3.1 was used in place of IkBa. A total of 1 microgram of DNA was used per well.
Forty-eight hours post-transfection, complexes of F[1,2]-p65 and [F3]-p50 were detected by fluorescence microscopy. […]
To examine the effect of proteasome inhibition on NFkB nuclear translocation, the transiently transfected cells expressing the DHFR PCA were treated with 40 micrograms/ml ALLN (Calbiochem) for 1 hr prior to TxR-MTX labeling and for the subsequent duration of the experiment. The cells were rinsed with PBS and the subcellular location of NFkB complexes were visualized using a Nikon Eclipse TE2000 fluorescence microscope at excitation and emission wavelengths of 580 nm and 625 nm, respectively. […]

[3] = tested on: IkBa/Ubiquitin complexes; test: IkBa/ubiquitin YFP PCA in HEK293T cells; type: cell-based; details: TNF induced HEK293T cells, ALLN versus vehicle
Procedure: IkBa-YFP[1] and YFP[2]-ubiquitin were constructed as described above and transiently expressed in HEK293T cells. […] The present invention can be applied to the large-scale identification of proteins modified by ubiquitin and ubiquitin-like polypeptides; for example, using library screening as in Example 2 of the present invention where the ‘bait’ is ubiquitin or a ubiquitin-like molecule, or by using interaction mapping as in Example 4 where ubiquitin or a ubiquitin-like molecule is tested against individual cDNAs to identify ubiquitin-protein complexes. In addition, by constructing ubiquitin PCAs for specific protein targets, the assays that are the subject of the present invention can immediately be applied to high-throughput screening for novel therapeutic agents.

[4] = tested on: IkBa/p65 complex; test: stable cell line IkBa/p65 YFP PCA, mean fluorescence intensity; type: cell-based
Text: TNF-induced degradation of IkBa, which is a consequence of ubiquitination and proteasomal degradation, frees bound NFkB and results in translocation of that transcription factor into the nucleus. Thus, disassembly of the IkBa-NFkB complex is a key step in NFkB-mediated gene regulation. To visualize regulation of the NFkB pathway at this level, we engineered a stable cell line expressing an IkBa/p65 PCA (FIG. 14). ERK1/MEK1 was used as a control. ERK1 was ligated to the 5′ end of YFP[1] while IkBa and MEK1 were appended to YFP[2] in N-terminal fusions. […]
Cells expressing IkBa-YFP[1]/YFP[2]-p65 or the controls, MEK-YFP[2]/ERK1-YFP[1], were seeded at 20,000 cells/well in black-walled poly-lysine coated 96 well plate (Greiner). […] Fluorescence was visualized and images were acquired using a Discovery-1 automated fluorescence imager (Molecular Devices, Inc.) equipped with excitation and emission filters 470/35 and 535/60, respectively. […]
Images were analyzed using Image J. Total mean fluorescence intensity for all cells was assessed by adding weighted mean fluorescence intensities for the nucleus and cytoplasm for individual cells in the population for a given condition +/− standard error. […] There was no effect of TNF treatment on the fluorescence intensity of the control (MEK/ERK) PCA.

Q: With CCCC[C@@H](C=O)NC(=O)[C@H](CC(C)C)NC(=O)[C@H](CC(C)C)NC(C)=O [ALLN] (Ac-Leu-Leu-[Nle]-aldehyde) as the molecule, how does the “effect on TNF-induced cytoplasmic-to-nuclear translocation of NFkB complexes” value [1] read?
A: inhibition of the TNF response; also recorded: inhibited

Q: What about the “effect on TNF-induced cytoplasmic-to-nuclear translocation of NFkB complexes in DHFR PCA” value [2] of the same molecule?
A: inhibition of the nuclear translocation; also recorded: inhibits

Q: What about the “mean fluorescence intensity of ubiquitin-IkBa complexes” value [3] of the same molecule?
A: increases the accumulation; also recorded: significantly increased

Q: And the “inhibition of the TNF-induced reduction of IkBa/p65 complexes” value ([4]; ALLN treatment for 4 hr)?
A: 98%

Q: What about the “effect on TNF-induced reduction in IkBa/p65 signal (in words)” value ([4]; FIG. 14) of the same molecule?
A: blocked
